Assay results taken from US12702715B2, “Targeted RNA degradation allows precision repurposing of protein-targeted small molecule medicines to RNA” (University of Florida Research Foundation, Incorporated, priority 2020, dated 2026).
“Also recorded” adds a separate entry of the source.

Assays:
Type in all cases: cell-based, human
[1] = tested on: RTK / phosphorylation of ERK (pERK); assay: Western blot of ERK phosphorylation (functional RTK inhibition) in MDA-MB-231 cells; details: for IC50: Homo sapiens, MDA-MB-231; for dose inhibiting ERK phosphorylation to the similar extent: Western blot quantification
Protocol: Western Blotting. MDA-MB-231 cells were plated in 6-well plates. […] The cells were harvested by trypsinization, and total protein was extracted with MPER (Mammalian Protein Extraction Reagent, Thermo Scientific) as previously described^6. Protein concentrations were determined by using a Pierce Micro BCA Protein Assay kit (Fisher Scientific). […] ImageJ software was used for quantification of the protein bands. […] In each case, the secondary antibody was diluted two times more than the primary antibody.

PDCD4 = PDCD4 Western blot in MDA-MB-231 cells
Protocol: Western Blotting. MDA-MB-231 cells were plated in 6-well plates. When they reached ~50% confluency, they were treated with vehicle (DMSO) or 4. After 48 h, the medium was removed, and the cells were washed with 1×DPBS. The cells were harvested by trypsinization, and total protein was extracted with MPER (Mammalian Protein Extraction Reagent, Thermo Scientific) as previously described^6. Protein concentrations were determined by using a Pierce Micro BCA Protein Assay kit (Fisher Scientific). Approximately 10 μg of total protein from each sample obtained above was resolved on a SDS-polyacrylamide gel (10%), and the protein were transferred to a PVDF ([…]) membrane. After blocking the membrane in 1×TBST with 5% (w/v) nonfat milk for 60 min, the membrane was incubated with 1×TBST containing 5% milk and PDCD4 (Cell Signaling Technology, 9535S) primary antibody (1:1000 dilution) at 4° C. overnight. The membrane was washed with 1×TBST for 10 min three times and then incubated with 1:2000 anti-rabbit IgG horseradish-peroxidase secondary antibody conjugate (Cell Signaling Technology, 7074S) in 1× TBST containing 5% (w/v) milk for about 2 h. After washing with 1×TBST for 10 min three times, PDCD4 protein was detected by using SuperSignal West Pico Chemiluminescent Substrate (Pierce Biotechnology). After imaging, the membrane was stripped with 1× Stripping Buffer (200 mM glycine with 0.1% SDS, pH 2.2) for 120 min at RT, and β-actin level was detected as described for PDCD4 except using β-actin (Cell Signaling Technology, 3700S) primary antibody (1:5000 dilution). ImageJ software was used for quantification of the protein bands.

MDA-MB-231 cells = assay: Boyden chamber invasion assay, MDA-MB-231
Protocol: Boyden Chamber Invasion Assay. MDA-MB-231 or MCF-10A cells (5×10^4) in serum free growth medium with or without compound treatment were seeded into hanging cell culture inserts (for 24-well plates) pre-coated with Matrigel. Complete growth medium was added to the bottom well. After 16-24 h, the medium was removed, and the hanging inserts were washed with 1×DPBS twice and then fixed with 4% paraformaldehyde in 1×DPBS at room temperature for 20 min. Then the inserts were washed twice with 1×DPBS and stained with 0.1% (w/v) crystal violet 1×DPBS for 20 min. The inserts were washed twice with nanopure water and once with 1×DPBS. Cells on the surface of the Matrigel (non-invasive) were removed with cotton swabs and invading cells were counted and imaged under a microscope.

[2] = tested on: proteome of MDA-MB-231 cells; assay: Global proteomics profiling by LC-MS/MS; details: for number of proteins significantly affected / abundance of miR-21 regulated proteins: 1 and 2 at 1 μM; for number of proteins significantly affected: LNA-21 0.1 μM, 48 h, 3000 proteins detected; for abundance of miR-21 regulated proteins: LNA-21 100 nM; for proteins associated with miR-let-7: control
Protocol: Global Proteomics Profiling by Using LC-MS/MS. MDA-MB-231 cells (~60% confluency) were treated with 1 (1 μM), 2 (1 μM), LNA-21 (0.1 μM), or vehicle for 48 h. After washing with 1×DPBS, the cells were harvested by scraping and resuspended in 1×DPBS. They were lysed by sonication and centrifuged at 14,000×g for 15 min. Protein concentrations were determined by a Bradford assay (Bio-Rad). Protein samples (340 μg) were denatured with 6 M urea in 50 mM NH4HCO3, pH 8, reduced with 10 mM TCEP (tris(2-carboxyethyl)phosphine hydrochloride) for 30 min, and alkylated with 25 mM iodoacetamide for 30 min in the dark. The samples were diluted to a final concentration of 2 M urea with 50 mM NH4HCO3, pH 8, and CaCl2) was added to a final concentration of 1 mM. The protein mixture was digested with tiypsin (1.5 μL of 0.5 μg/μL) overnight at 37° C. The digested protein samples were acidified with acetic acid and desalted over a self-packed C18 spin column. After lyophilization, the samples were analyzed by LC-MS/MS as described below.
LC-MS/MS Analysis and MaxQuant Analysis. The lyophilized protein obtained above was resuspended in 0.1% formic acid in water and analyzed by using an EASY-nLC 1200 nano-UHPLC coupled to Q Exactive HF-X Quadrupole-Orbitrap mass spectrometer (Thermo Scientific) as previously reported^6. Obtained spectra were then analyzed with MaxQuant (V1.6.1.0). Spectra were searched against the human proteome (Uniprot) and common contaminants. The search tolerance was set to 20 ppm for the first peptide search and 10 ppm for the main peptide search. The false discovery rate (FDR) for proteins, peptides and sites identification was set at 5%. All the parameters were set as previously reported^6.
Principal Component Analysis. Principal component analysis (PCA) was completed on the proteomics data that included 2,315 proteins that were detected in all samples after the technical replications were averaged, to visualize overall differences across the samples. R build in package prcomp^10 was used to perform the analysis, where scale was set to TRUE.

With `CN1CCN(c2ccc3nc(-c4c(N)c5c(F)cccc5[nH]c4=O)[nH]c3c2)CC1` [Compound 1, Dovitinib, reference compound] the IC50 [1] was 0.1 µM, the “dose inhibiting ERK phosphorylation to the similar extent” value [1] was 0.05 µM and the “derepression of PDCD4 expression” value (PDCD4; 5 μM) was ~ 60%. For the same compound, the “invasion of MDA-MB-231 cells” value (MDA-MB-231 cells) was “inhibited invasiveness; also recorded: reduced”, the “number of affected proteins associated with ERK pathways” value ([2]; 1 μM) was 14 and the “number of proteins significantly affected” value [2] was 46. For the same compound, the “abundance of miR-21 regulated proteins” value [2] was “had no effect; also recorded: no significant changes” and the “proteins associated with miR-let-7” value [2] was “Neither treatment with 1 nor 2 affected”.
In the case of `CCOC(=O)C1=C(Nc2ccccc2)S/C(=C\c2ccc(OCCOCCOCCOCCNC(=O)NCCN3CCN(c4ccc5[nH]c(-c6c(N)c7c(F)cccc7[nH]c6=O)nc5c4)CC3)c(O)c2)C1=O` [Compound 2, Ribotac-Dovitinib], the “fold decrease of RTK inhibition relative to 1” value [1] is reported as 100 fold, the “shift of selectivity toward miR-21 over RTK” value ([1]; 25-fold (miR-21) × 100-fold (RTK), relative to 1) is reported as 2,500 fold and the IC50 [1] is reported as 10 µM. For the same compound, the “inhibition of ERK phosphorylation compared to 1” value ([1]; Western blot) was “reduced ability to inhibit ERK phosphorylation compared to 1”, the “dose inhibiting ERK phosphorylation to the similar extent” value [1] was 5 µM and the PDCD4 expression (PDCD4; MDA-MB-231, 1 and 2 at 1 μM, LNA-21 at 100 nM) was “derepressed”. For the same compound, the “fold more potent downstream effects than 1” value (PDCD4; PTEN, PDCD4, invasion) was 10 fold, the “invasion of MDA-MB-231 cells” value (MDA-MB-231 cells) was “reduced the invasive characteristic” and the “PCA similarity of proteome” value [2] was “more similar to treatment with LNA-21 than 1”. For the same compound, the “number of proteins significantly affected” value [2] was 28, the “abundance of miR-21 regulated proteins” value [2] was “globally upregulated; also recorded: significant increase in abundance” and the “proteins associated with miR-let-7” value [2] was “Neither treatment with 1 nor 2 affected”.
